From ChEMBL document CHEMBL5058645, “Data for DCP probe JNJ-6204” (2022)

What was measured:
[1] = molecular target: 5'-AMP-activated protein kinase catalytic subunit alpha-1 (Homo sapiens) (UniProt Q13131); experiment: AMPKalpha1(h) Kinase panel; conditions: Compound concentration 1.0 uM, tested as the 2H-labelled form
[2] = molecular target: Mitogen-activated protein kinase kinase kinase 5 (Homo sapiens) (UniProt Q99683); experiment: ASK1(h) Kinase panel; conditions: Compound concentration 1.0 uM, tested as the 2H-labelled form
[3] = molecular target: Protein-tyrosine kinase 6 (Homo sapiens) (UniProt Q13882); experiment: BRK(h) Kinase panel; conditions: Compound concentration 1.0 uM, tested as the 2H-labelled form
[4] = molecular target: Serine/threonine-protein kinase BRSK1 (Homo sapiens) (UniProt Q8TDC3); experiment: BrSK1(h) Kinase panel; conditions: Compound concentration 1.0 uM, tested as the 2H-labelled form
[5] = molecular target: Calcium/calmodulin-dependent protein kinase type II subunit gamma (Homo sapiens) (UniProt Q13555); experiment: CaMKIIgamma(h) Kinase panel; conditions: Compound concentration 1.0 uM, tested as the 2H-labelled form
Sequence of Calcium/calmodulin-dependent protein kinase type II subunit gamma (Homo sapiens) (Q13555 whole entry): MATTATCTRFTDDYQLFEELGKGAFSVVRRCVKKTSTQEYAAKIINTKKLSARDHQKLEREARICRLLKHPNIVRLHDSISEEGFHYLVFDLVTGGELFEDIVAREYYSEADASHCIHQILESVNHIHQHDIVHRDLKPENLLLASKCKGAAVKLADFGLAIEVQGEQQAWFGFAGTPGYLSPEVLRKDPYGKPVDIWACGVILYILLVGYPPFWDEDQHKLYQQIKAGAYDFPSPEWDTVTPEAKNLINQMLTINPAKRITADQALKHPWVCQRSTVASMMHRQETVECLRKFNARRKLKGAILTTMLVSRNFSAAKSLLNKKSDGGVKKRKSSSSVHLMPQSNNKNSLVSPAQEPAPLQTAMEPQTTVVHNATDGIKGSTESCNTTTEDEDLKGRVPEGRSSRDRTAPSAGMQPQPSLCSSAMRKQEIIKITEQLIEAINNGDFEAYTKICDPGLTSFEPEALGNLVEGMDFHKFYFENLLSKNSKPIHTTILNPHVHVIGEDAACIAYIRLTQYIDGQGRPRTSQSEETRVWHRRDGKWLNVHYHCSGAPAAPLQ

[6] = molecular target: Cyclin-dependent kinase 7 (Homo sapiens) (UniProt P50613); experiment: CDK7/cyclinH/MAT1(h) Kinase panel; conditions: Compound concentration 1.0 uM, tested as the 2H-labelled form
[7] = molecular target: Cyclin-dependent kinase 18 (Homo sapiens) (UniProt Q07002); experiment: CDK18/cyclinY(h) Kinase panel; conditions: Compound concentration 1.0 uM, tested as the 2H-labelled form
[8] = molecular target: Casein kinase II subunit alpha' (Homo sapiens) (UniProt P19784); experiment: CK2alpha2(h) Kinase panel; conditions: Compound concentration 1.0 uM, tested as the 2H-labelled form
[9] = molecular target: Serine/threonine-protein kinase 35 (Homo sapiens) (UniProt Q8TDR2); experiment: CLIK1(h) Kinase panel; conditions: Compound concentration 1.0 uM, tested as the 2H-labelled form
[10] = molecular target: Proto-oncogene tyrosine-protein kinase Src (Homo sapiens) (UniProt P12931); experiment: cSRC(h) Kinase panel; conditions: Compound concentration 1.0 uM, tested as the 2H-labelled form
[11] = molecular target: Receptor tyrosine-protein kinase erbB-4 (Homo sapiens) (UniProt Q15303); experiment: ErbB4(h) Kinase panel; conditions: Compound concentration 1.0 uM, tested as the 2H-labelled form
[12] = molecular target: Beta-adrenergic receptor kinase 1 (Homo sapiens) (UniProt P25098); experiment: GRK2(h) Kinase panel; conditions: Compound concentration 1.0 uM, tested as the 2H-labelled form
[13] = molecular target: G protein-coupled receptor kinase 3 (Homo sapiens) (UniProt P35626); experiment: GRK3(h) Kinase panel; conditions: Compound concentration 1.0 uM, tested as the 2H-labelled form
[14] = molecular target: G protein-coupled receptor kinase 6 (Homo sapiens) (UniProt P43250); experiment: GRK6(h) Kinase panel; conditions: Compound concentration 1.0 uM, tested as the 2H-labelled form
[15] = molecular target: Eukaryotic translation initiation factor 2-alpha kinase 1 (Homo sapiens) (UniProt Q9BQI3); experiment: HRI(h) Kinase panel; conditions: Compound concentration 1.0 uM, tested as the 2H-labelled form
[16] = molecular target: Tyrosine-protein kinase ITK/TSK (Homo sapiens) (UniProt Q08881); experiment: Itk(h) Kinase panel; conditions: Compound concentration 1.0 uM, tested as the 2H-labelled form
[17] = molecular target: Mitogen-activated protein kinase kinase kinase kinase 3 (Homo sapiens) (UniProt Q8IVH8); experiment: MAP4K3(h) Kinase panel; conditions: Compound concentration 1.0 uM, tested as the 2H-labelled form
[18] = molecular target: Myosin light chain kinase (Homo sapiens) (UniProt Q32MK0); experiment: MLCK(h) Kinase panel; conditions: Compound concentration 1.0 uM, tested as the 2H-labelled form
[19] = molecular target: Mitogen-activated protein kinase kinase kinase 10 (Homo sapiens) (UniProt Q02779); experiment: MLK2(h) Kinase panel; conditions: Compound concentration 1.0 uM, tested as the 2H-labelled form
[20] = molecular target: Serine/threonine-protein kinase 4 (Homo sapiens) (UniProt Q13043); experiment: MST1(h) Kinase panel; conditions: Compound concentration 1.0 uM, tested as the 2H-labelled form
[21] = molecular target: Serine/threonine-protein kinase 24 (Homo sapiens) (UniProt Q9Y6E0); experiment: MST3(h) Kinase panel; conditions: Compound concentration 1.0 uM, tested as the 2H-labelled form
[22] = molecular target: Serine/threonine-protein kinase Nek4 (Homo sapiens) (UniProt P51957); experiment: NEK4(h) Kinase panel; conditions: Compound concentration 1.0 uM, tested as the 2H-labelled form
[23] = molecular target: Serine/threonine-protein kinase Nek9 (Homo sapiens) (UniProt Q8TD19); experiment: NEK9(h) Kinase panel; conditions: Compound concentration 1.0 uM, tested as the 2H-labelled form
[24] = molecular target: Serine/threonine-protein kinase Nek11 (Homo sapiens) (UniProt Q8NG66); experiment: NEK11(h) Kinase panel; conditions: Compound concentration 1.0 uM, tested as the 2H-labelled form
[25] = molecular target: Serine/threonine-protein kinase MARK2 (Homo sapiens) (UniProt Q7KZI7); experiment: PAR-1Balpha(h) Kinase panel; conditions: Compound concentration 1.0 uM, tested as the 2H-labelled form
[26] = molecular target: [Pyruvate dehydrogenase (acetyl-transferring)] kinase isozyme 4, mitochondrial (Homo sapiens) (UniProt Q16654); experiment: PDHK4(h) Kinase panel; conditions: Compound concentration 1.0 uM, tested as the 2H-labelled form
[27] = molecular target: Serine/threonine-protein kinase pim-3 (Homo sapiens) (UniProt Q86V86); experiment: Pim-3(h) Kinase panel; conditions: Compound concentration 1.0 uM, tested as the 2H-labelled form
[28] = molecular target: Protein kinase C beta type (Homo sapiens) (UniProt P05771); experiment: PKCbetaI (h) Kinase panel; conditions: Compound concentration 1.0 uM, tested as the 2H-labelled form
[29] = molecular target: Protein kinase C iota type (Homo sapiens) (UniProt P41743); experiment: PKCiota (h) Kinase panel; conditions: Compound concentration 1.0 uM, tested as the 2H-labelled form
[30] = molecular target: Protein kinase C theta type (Homo sapiens) (UniProt Q04759); experiment: PKCtheta (h) Kinase panel; conditions: Compound concentration 1.0 uM, tested as the 2H-labelled form
[31] = molecular target: Serine/threonine-protein kinase PLK4 (Homo sapiens) (UniProt O00444); experiment: Plk4(h) Kinase panel; conditions: Compound concentration 1.0 uM, tested as the 2H-labelled form
Sequence of Serine/threonine-protein kinase PLK4 (Homo sapiens) (O00444 whole entry): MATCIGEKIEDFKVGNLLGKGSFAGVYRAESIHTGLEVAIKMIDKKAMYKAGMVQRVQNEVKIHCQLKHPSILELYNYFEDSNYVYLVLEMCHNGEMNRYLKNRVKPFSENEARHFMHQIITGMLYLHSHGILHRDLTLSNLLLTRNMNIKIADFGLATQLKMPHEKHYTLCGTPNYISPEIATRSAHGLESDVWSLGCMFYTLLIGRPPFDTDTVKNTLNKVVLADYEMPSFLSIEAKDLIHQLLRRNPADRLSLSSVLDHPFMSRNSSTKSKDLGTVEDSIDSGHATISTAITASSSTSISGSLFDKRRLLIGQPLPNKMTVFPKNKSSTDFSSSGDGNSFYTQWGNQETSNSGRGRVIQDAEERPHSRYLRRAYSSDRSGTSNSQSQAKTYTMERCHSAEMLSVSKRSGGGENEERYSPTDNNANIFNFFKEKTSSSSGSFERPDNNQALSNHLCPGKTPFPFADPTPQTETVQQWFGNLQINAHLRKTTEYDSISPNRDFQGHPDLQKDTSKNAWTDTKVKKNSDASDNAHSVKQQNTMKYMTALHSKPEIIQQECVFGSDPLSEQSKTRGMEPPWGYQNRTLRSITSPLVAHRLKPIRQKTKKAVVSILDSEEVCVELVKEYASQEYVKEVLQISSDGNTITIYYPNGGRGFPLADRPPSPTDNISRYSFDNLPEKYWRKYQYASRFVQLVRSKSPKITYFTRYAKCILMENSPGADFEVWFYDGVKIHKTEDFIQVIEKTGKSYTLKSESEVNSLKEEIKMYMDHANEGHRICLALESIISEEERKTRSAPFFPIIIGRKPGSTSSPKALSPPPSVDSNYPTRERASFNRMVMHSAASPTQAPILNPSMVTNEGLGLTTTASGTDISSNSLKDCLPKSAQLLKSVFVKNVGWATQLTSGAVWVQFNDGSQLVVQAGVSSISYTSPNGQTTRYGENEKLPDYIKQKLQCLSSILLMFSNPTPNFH

[32] = molecular target: Protein-tyrosine kinase 2-beta (Homo sapiens) (UniProt Q14289); experiment: Pyk2(h) Kinase panel; conditions: Compound concentration 1.0 uM, tested as the 2H-labelled form
Sequence of Protein-tyrosine kinase 2-beta (Homo sapiens) (Q14289 whole entry, looked up): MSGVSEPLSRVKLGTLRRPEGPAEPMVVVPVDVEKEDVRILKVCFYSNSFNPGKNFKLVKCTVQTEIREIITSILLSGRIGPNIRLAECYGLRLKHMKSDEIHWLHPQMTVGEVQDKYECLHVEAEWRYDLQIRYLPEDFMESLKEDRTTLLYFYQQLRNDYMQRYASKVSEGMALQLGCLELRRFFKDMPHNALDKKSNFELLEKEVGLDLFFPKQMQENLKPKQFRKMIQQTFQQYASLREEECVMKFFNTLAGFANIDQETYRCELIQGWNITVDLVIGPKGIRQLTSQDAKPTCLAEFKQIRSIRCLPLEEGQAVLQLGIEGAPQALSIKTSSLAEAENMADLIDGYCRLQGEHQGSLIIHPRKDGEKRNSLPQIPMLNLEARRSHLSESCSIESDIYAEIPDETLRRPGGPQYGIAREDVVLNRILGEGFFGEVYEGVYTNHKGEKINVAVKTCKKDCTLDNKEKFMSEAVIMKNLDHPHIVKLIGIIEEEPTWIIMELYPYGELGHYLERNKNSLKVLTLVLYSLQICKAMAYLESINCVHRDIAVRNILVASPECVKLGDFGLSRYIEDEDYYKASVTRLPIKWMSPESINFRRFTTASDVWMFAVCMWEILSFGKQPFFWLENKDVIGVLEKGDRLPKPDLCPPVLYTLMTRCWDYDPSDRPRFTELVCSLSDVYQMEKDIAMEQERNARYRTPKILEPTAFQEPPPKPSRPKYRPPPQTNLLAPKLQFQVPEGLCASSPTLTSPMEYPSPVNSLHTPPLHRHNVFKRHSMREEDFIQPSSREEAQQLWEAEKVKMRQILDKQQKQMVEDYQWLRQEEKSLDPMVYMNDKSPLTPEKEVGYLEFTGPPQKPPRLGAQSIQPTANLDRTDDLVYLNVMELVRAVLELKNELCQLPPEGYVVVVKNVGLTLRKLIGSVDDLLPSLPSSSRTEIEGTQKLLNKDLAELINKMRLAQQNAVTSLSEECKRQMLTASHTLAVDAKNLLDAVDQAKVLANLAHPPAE

[33] = molecular target: Macrophage-stimulating protein receptor (Homo sapiens) (UniProt Q04912); experiment: Ron(h) Kinase panel; conditions: Compound concentration 1.0 uM, tested as the 2H-labelled form
[34] = molecular target: Mitogen-activated protein kinase 11 (Homo sapiens, UniProt Q15759); experiment: SAPK2b(h) Kinase panel; conditions: Compound concentration 1.0 uM, tested as the 2H-labelled form
[35] = molecular target: Serine/threonine-protein kinase Sgk1 (Homo sapiens) (UniProt O00141); experiment: SGK(h) Kinase panel; conditions: Compound concentration 1.0 uM, tested as the 2H-labelled form
Sequence of Serine/threonine-protein kinase Sgk1 (Homo sapiens) (O00141 whole entry): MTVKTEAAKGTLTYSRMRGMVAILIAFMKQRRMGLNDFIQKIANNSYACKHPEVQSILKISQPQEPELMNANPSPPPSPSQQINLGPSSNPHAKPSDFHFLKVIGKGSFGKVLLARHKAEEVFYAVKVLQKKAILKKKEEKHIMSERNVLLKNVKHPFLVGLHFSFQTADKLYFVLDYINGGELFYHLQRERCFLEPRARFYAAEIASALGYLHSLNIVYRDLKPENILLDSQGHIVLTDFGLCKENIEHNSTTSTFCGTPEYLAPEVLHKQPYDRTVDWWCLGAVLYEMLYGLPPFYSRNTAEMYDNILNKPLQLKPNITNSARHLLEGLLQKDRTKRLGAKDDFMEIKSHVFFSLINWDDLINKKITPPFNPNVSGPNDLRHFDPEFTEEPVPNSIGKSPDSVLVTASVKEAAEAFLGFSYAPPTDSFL

[36] = molecular target: Serine/threonine-protein kinase PLK2 (Homo sapiens) (UniProt Q9NYY3); experiment: Snk(h) Kinase panel; conditions: Compound concentration 1.0 uM, tested as the 2H-labelled form
[37] = molecular target: SNF-related serine/threonine-protein kinase (Homo sapiens) (UniProt Q9NRH2); experiment: SNRK(h) Kinase panel; conditions: Compound concentration 1.0 uM, tested as the 2H-labelled form
[38] = molecular target: STE20/SPS1-related proline-alanine-rich protein kinase (Homo sapiens) (UniProt Q9UEW8); experiment: STK39(h) Kinase panel; conditions: Compound concentration 1.0 uM, tested as the 2H-labelled form
[39] = molecular target: Mitogen-activated protein kinase kinase kinase 7 (Homo sapiens) (UniProt O43318); experiment: TAK1(h) Kinase panel; conditions: Compound concentration 1.0 uM, tested as the 2H-labelled form
Sequence of Mitogen-activated protein kinase kinase kinase 7 (Homo sapiens) (O43318 whole entry): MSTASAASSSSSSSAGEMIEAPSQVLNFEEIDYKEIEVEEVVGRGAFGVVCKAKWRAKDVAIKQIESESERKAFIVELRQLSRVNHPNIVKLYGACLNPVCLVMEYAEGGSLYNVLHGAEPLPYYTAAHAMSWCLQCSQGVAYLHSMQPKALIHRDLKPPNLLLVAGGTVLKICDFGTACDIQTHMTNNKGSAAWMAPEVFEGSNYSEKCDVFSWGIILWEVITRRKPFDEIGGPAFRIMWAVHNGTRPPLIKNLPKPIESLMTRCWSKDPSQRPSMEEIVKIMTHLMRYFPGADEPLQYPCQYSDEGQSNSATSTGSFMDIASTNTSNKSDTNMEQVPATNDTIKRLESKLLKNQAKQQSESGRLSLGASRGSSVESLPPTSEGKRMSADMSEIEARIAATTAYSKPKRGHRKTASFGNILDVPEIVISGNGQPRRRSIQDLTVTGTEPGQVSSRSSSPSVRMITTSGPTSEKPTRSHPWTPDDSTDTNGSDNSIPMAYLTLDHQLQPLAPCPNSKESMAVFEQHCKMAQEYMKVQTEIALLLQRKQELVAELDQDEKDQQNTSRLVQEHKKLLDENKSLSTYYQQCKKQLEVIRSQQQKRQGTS

[40] = molecular target: Serine/threonine-protein kinase TAO1 (Homo sapiens) (UniProt Q7L7X3); experiment: TAO1(h) Kinase panel; conditions: Compound concentration 1.0 uM, tested as the 2H-labelled form
[41] = molecular target: Angiopoietin-1 receptor (Homo sapiens) (UniProt Q02763); experiment: Tie2 (h) Kinase panel; conditions: Compound concentration 1.0 uM, tested as the 2H-labelled form
[42] = molecular target: Serine/threonine-protein kinase tousled-like 1 (Homo sapiens) (UniProt Q9UKI8); experiment: TLK1(h) Kinase panel; conditions: Compound concentration 1.0 uM, tested as the 2H-labelled form
Sequence of Serine/threonine-protein kinase tousled-like 1 (Homo sapiens) (Q9UKI8 whole entry): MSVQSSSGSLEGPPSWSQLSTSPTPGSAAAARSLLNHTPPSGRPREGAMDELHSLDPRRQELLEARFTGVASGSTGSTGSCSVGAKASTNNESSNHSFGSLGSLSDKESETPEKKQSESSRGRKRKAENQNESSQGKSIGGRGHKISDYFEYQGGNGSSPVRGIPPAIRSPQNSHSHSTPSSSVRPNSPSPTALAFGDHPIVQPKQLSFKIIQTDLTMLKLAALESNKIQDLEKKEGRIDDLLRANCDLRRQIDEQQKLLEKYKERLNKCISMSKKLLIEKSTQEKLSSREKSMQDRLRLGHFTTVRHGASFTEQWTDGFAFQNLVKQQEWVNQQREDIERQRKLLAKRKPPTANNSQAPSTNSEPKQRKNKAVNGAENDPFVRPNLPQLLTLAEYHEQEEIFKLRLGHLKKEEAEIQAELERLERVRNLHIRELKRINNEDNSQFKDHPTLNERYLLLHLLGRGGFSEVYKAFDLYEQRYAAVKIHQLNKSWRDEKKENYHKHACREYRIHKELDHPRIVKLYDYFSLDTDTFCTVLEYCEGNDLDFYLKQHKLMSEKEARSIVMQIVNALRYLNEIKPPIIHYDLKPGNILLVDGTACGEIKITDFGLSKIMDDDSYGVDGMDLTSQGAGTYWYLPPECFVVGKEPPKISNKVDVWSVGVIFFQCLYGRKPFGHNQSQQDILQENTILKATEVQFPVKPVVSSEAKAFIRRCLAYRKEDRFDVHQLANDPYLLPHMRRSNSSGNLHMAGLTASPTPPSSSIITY

[43] = molecular target: Tribbles homolog 2 (Homo sapiens) (UniProt Q92519); experiment: TRB2(h) Kinase panel; conditions: Compound concentration 1.0 uM, tested as the 2H-labelled form
[44] = molecular target: Tau-tubulin kinase 1 (Homo sapiens) (UniProt Q5TCY1); experiment: TTBK1(h) Kinase panel; conditions: Compound concentration 1.0 uM, tested as the 2H-labelled form
[45] = molecular target: Serine/threonine-protein kinase ULK2 (Homo sapiens) (UniProt Q8IYT8); experiment: ULK2(h) Kinase panel; conditions: Compound concentration 1.0 uM, tested as the 2H-labelled form
[46] = molecular target: Death-associated protein kinase 3 (Homo sapiens) (UniProt O43293); experiment: ZIPK(h) Kinase panel; conditions: Compound concentration 1.0 uM, tested as the 2H-labelled form
Sequence of Death-associated protein kinase 3 (Homo sapiens) (O43293 whole entry, looked up): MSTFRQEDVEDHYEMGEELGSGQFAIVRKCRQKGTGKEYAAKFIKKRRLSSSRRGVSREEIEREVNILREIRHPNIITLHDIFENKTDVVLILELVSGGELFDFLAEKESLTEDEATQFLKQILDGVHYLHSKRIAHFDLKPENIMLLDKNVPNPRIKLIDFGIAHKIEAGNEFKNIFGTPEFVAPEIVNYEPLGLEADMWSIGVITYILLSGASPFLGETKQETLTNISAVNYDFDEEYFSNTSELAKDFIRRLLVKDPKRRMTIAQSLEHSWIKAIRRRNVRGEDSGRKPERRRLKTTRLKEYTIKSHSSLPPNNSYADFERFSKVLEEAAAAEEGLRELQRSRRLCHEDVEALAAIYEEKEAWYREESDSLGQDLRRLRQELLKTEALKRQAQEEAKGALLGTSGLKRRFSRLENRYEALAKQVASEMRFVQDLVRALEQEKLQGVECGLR

[47] = molecular target: Phosphatidylinositol 4-phosphate 5-kinase type-1 gamma (Homo sapiens) (UniProt O60331); experiment: PIP5K1g(h) Kinase panel; conditions: Compound concentration 1.0 uM, tested as the 2H-labelled form
[48] = molecular target: 5-hydroxytryptamine receptor 3A (Homo sapiens) (UniProt P46098); conditions: Compound concentration 10.0 uM, tested as the 2H-labelled form
[49] = molecular target: Alpha-1A adrenergic receptor (Homo sapiens) (UniProt P35348); conditions: Compound concentration 10.0 uM, tested as the 2H-labelled form
[50] = molecular target: Alpha-1B adrenergic receptor (Homo sapiens) (UniProt P35368); conditions: Compound concentration 10.0 uM, tested as the 2H-labelled form
[51] = molecular target: Sigma non-opioid intracellular receptor 1 (Homo sapiens) (UniProt Q99720); conditions: Compound concentration 10.0 uM, tested as the 2H-labelled form
Sequence of Sigma non-opioid intracellular receptor 1 (Homo sapiens) (Q99720 whole entry): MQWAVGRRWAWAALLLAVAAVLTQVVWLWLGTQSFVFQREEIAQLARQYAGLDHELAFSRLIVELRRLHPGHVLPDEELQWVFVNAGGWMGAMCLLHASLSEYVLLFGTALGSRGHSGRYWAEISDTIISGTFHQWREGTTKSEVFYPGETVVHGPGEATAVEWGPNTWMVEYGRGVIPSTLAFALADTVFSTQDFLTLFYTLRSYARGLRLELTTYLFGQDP

Measured: inhibition

CC1(C)Cn2nc(-c3ccc(F)cn3)c(-c3ccnc4[nH]ncc34)c2CO1
inactive: [1] 0% | [2] 12% | [3] -1% | [4] 13% | [5] -2% | [6] -8% | [7] 4% | [8] 4% | [9] 13% | [10] 15% | [11] 19% | [12] -8% | [13] 15% | [14] -9% | [15] -6% | [16] -8% | [17] -7% | [18] 19% | [19] 8% | [20] -4% | [21] -2% | [22] 7% | [23] 6% | [24] 12% | [25] 15% | [26] -7% | [27] 4% | [28] 4% | [29] -2% | [30] 9% | [31] 16% | [32] -2% | [33] 13% | [34] -3% | [35] 11% | [36] -4% | [37] 4% | [38] 11% | [39] -5% | [40] -5% | [41] 1% | [42] 6% | [43] -2% | [44] 19% | [45] 17% | [46] 13% | [47] -1% | [48] 1.04% | [49] 0.58% | [50] 1.82% | [51] 15.1%
